BindingDB's records for doi:10.1073/pnas.151105198 (Synaptic Pharmaceutical, 2001)
pKi: −log10 of the molar value.

Target: T1, Trace amine-associated receptor 1 (Homo sapiens, UniProt Q96RJ0)
T1 sequence (Q96RJ0 whole entry): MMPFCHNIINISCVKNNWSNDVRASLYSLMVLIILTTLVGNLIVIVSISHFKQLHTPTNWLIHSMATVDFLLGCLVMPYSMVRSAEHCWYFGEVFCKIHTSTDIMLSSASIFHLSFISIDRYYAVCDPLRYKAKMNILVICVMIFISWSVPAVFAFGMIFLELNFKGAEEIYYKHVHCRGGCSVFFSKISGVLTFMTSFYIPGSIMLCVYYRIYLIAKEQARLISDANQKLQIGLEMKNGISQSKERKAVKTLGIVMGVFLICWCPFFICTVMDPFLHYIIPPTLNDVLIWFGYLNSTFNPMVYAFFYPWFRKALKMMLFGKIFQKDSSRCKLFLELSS

SMILES	pKi
NCCc1ccc(O)cc1	7.47
CN1CCN(C2Cc3ccccc3Sc3ccc(Cl)cc32)CC1 (stereo unspecified) [1-(8-chloro-10,11-dihydrodibenzo[b,f]thiepin-10-yl)-4-methylpiperazine]	6.31
NCCc1c[nH]c2ccccc12 [1H-indole-3-ethanamine]	5.96
OCCc1ccccc1 [NSC_6054]	8.10
NCC(O)c1ccc(O)c(O)c1 (stereo not drawn) [Noradrenaline,(+)]	< 5.00
NCCc1c[nH]cn1 [[3H]histamine]	5.51
